In patent US20240101548A1, “HYDROXAMATE COMPOUND, PREPARATION METHOD THEREFOR AND APPLICATION THEREOF” (SHENZHEN CHIPSCREEN BIOSCIENCES CO., LTD., priority 2020, published 2024):
Read-outs that look alike come from different tables or passages of the source.

Key:
[1] = test system: EPO-induced JAK2 signal pathway; assay: EPO-induced proliferation of UT-7 cells (JAK2 signal); assay type: cell-based, human; conditions: Homo sapiens, UT7; UT-7 cell proliferation, EPO 10 ng/mL, 72 hours; read-out: Inhibition activity IC50 on EPO-induced JAK2 signal pathway
Protocol: The cytokine EPO, i.e. erythropoietin, can promote the proliferation and division of erythroid progenitor cells, and the signal pathway induced by EPO coupling with its receptor is mediated by JAK2-STAT5.
Human promegakaryocytic leukemia cell line UT-7 was commercially available from Cell Resource Center, Institute of Basic Medicine, Chinese Academy of Medical Sciences. The culture medium was RPIM1640 containing 10% FBS, and EPO was added for a final concentration of 10 ng/mL.
The inhibition rate of the tested compound on EPO-induced cell proliferation was calculated using Microsoft Excel.
UT-7 cell line was inoculated in 96-well plate with flat bottom at 15000 cells per well, each well was added with 10 ng/mL of human recombinant EPO (Human EPO PEPROTECH 100-64-10UG), along with tested compound respectively for a final concentration of 0, 100, 1000 or 10000 nM. After culture at 37° C. and 5% CO2 for 72 hours, alamarBlue™ Cell Viability Reagent was added to each well following the instructions. After incubation at 37° C. for color reaction, the fluorescence value at Ex530/Em590 was detected using Tecan Spark™ 10M multimode microplate reader.
(§1) The well in which neither compound nor cytokine was added was designated as 00 control well, and the fluorescence value in the wells in which the final concentration of compound was 0 was designated as 100 control. The inhibition activity MC50 ofthe tested compound on JAK2 could be calculated from the inhibition rate ofthe tested compound on EPO-induced cell proliferation at different doses.

[2] = test system: IL-2-induced JAK1/JAK3 signal pathway; assay: IL-2-induced proliferation of KHYG-1 cells (JAK1/JAK3 signal); assay type: cell-based, human; conditions: Homo sapiens, read-out: Inhibition activity IC50 on IL-2-induced JAK1/JAK3 signal pathway
Source text: The main physiological function of cytokine IL-2 is to stimulate and maintain the proliferation and differentiation of T cells. Generally, IL-2 dependent T cells cannot survive in in-vitro culture for a long time, but the addition of IL-2 can make them continue to proliferate. The signal pathway induced by IL-2 coupling with its receptor is mediated by JAK1/JAK3-STAT5, so the inhibitor of JAK1 and/or JAK3 can inhibit the proliferation of IL-2 dependent cells.
Human natural killer cell lymphoma cell line KHYG-1 was commercially available from Health Science Research Resources Bank (HSRRB), and relevant culture conditions referred to those from HSRRB.
The inhibition rate of the tested compound on IL-2-induced cell proliferation was calculated using Microsoft Excel.
After culture at 37° C. and 5% CO2 for 72 hours, alamarBlue™ Cell Viability Reagent was added to each well following the instructions.
as §1, with “0%” for “00”, “100%” for “100”, “[…] of the” for “MC50 ofthe”, “JAK1/JAK3” for “JAK2”, “of the” for “ofthe”, “IL-2-induced” for “EPO-induced”

[3] = KHYG-1 cell proliferation, IL-2 10 ng/mL, 72 hours

Structure (SMILES) | IC50 [1] [µM] | IC50 [2, 3] [µM] | IC50 ([2]; KHYG-1, 72 h) [µM]
CONC(=O)c1cnc(Nc2ccc(C#N)cc2)cc1Nc1ccccc1N(C)S(C)(=O)=O [Example 103, 6-((4-cyanophenyl)amino)-N-methoxy-4-((2-(N-methylmethanesulfonamido)phenyl)amino)nicotinamide] | > 10 | > 10 | 
C#Cc1ccc(Nc2cc(Nc3cccc(F)n3)ncc2C(=O)NOC(C)C)c(N(C)S(C)(=O)=O)c1 [Example 24] | > 10 | > 10 | 
CCNC(=O)c1cnc(NC(=O)C2CC2)cc1Nc1cccc(-c2cnn(C)c2)c1OC [Example 71, 6-(cyclopropylcarboxamido)-N-ethyl-4-((2-methoxy-3-(1-methyl-1H-pyrazol-4-yl)phenyl)amino)nicotinamide] | > 10 | > 10 | 
CCONC(=O)c1cnc(Nc2ccnn2C)cc1Nc1ccc(C2CC2)cc1N(C)S(C)(=O)=O [Example 161, 4-((4-cyclopropyl-2-(N-methylmethanesulfonamido)phenyl)amino)-N-ethoxy-6-((1-methyl-1H-pyrazol-5-yl)amino)nicotinamide] | > 10 | > 10 | 
CCONC(=O)c1cnc(Nc2ccccn2)cc1Nc1cc(F)c(C2CC2)cc1N(C)S(C)(=O)=O [Example 96, 4-((4-cyclopropyl-5-fluoro-2-(N-methylmethanesulfonamido)phenyl)amino)-N-ethoxy-6-(pyridin-2-ylamino)nicotinamide] | > 10 | > 10 | 
CONC(=O)c1cnc(Nc2ccc(F)cc2)cc1Nc1ccccc1N(C)S(C)(=O)=O [Example 104, 6-((4-fluorophenyl)amino)-N-methoxy-4-((2-(N-methylmethanesulfonamido)phenyl)amino)nicotinamide] | > 10 | > 10 | 
CONC(=O)c1cnc(NC(=O)C2CC2)cc1Nc1cccc(-c2nc3ccccc3n2C)c1OC [Example 3, 6-(cyclopropylcarboxamido)-N-methoxy-4-((2-methoxy-3-(1-methyl-1H-benzo[d]imidazol-2-yl)phenyl)amino)nicotinamide] | > 10 | > 10 | 
C#Cc1ccc(Nc2cc(Nc3nc(C)cc(C)n3)ncc2C(=O)NOCC)c(N(C)S(C)(=O)=O)c1 [Example 164, 6-((4,6-dimethylpyrimidin-2-yl)amino)-N-ethoxy-4-((4-ethynyl-2-(N-methylmethanesulfonamido)phenyl)amino)nicotinamide] | > 10 | > 10 | 
CONC(=O)c1cnc(NC(=O)[C@H]2CC2(C)C)cc1Nc1ccccc1N(C)S(C)(=O)=O [Example 105, (S)-6-(2,2-dimethylcyclopropyl-1-carboxamido)-N-methoxy-4-((2-(N-methylmethanesulfonamido)phenyl)amino)nicotinamide] | > 10 | > 10 | 
CONC(=O)c1cnc(NC(=O)C2CC2)cc1Nc1cccc(F)c1N(C)S(C)(=O)=O [Example 32, 6-(cyclopropylcarboxamido)-4-((3-fluoro-2-(N-methylmethanesulfonamido)phenyl)amino)-N-methoxy nicotinamide] | > 10 | > 10 | 
CONC(=O)c1cnc(NC(=O)C2CC2)cc1Nc1ccccc1OC1COC1 [Example 39, 6-(cyclopropylcarboxamido)-N-methoxy-4-((2-(oxetan-3-yloxy)phenyl)amino)nicotinamide] | > 10 |  | > 10
CONC(=O)c1cnc(Nc2ccc(F)cn2)cc1Nc1cccc(Cl)c1N(C)S(C)(=O)=O [Example 77, 4-((3-chloro-2-(N-methylmethanesulfonamido)phenyl)amino)-6-((5-fluoropyridin-2-yl)amino)-N-methoxy nicotinamide] | > 10 | > 10 | 
CCONC(=O)c1cnc(Nc2cc(C)c(F)cn2)cc1Nc1cc(F)c(C2CC2)cc1N(C)S(C)(=O)=O [Example 99, 4-((4-cyclopropyl-5-fluoro-2-(N-methylmethanesulfonamido)phenyl)amino)-N-ethoxy-6-((5-fluoro-4-methylpyridin-2-yl)amino)nicotinamide] | > 10 | > 10 | 
CONC(=O)c1cnc(NC(=O)C2CC2)cc1Nc1cccc(-c2ccn(C)n2)c1OCC(F)(F)F [Example 50, 6-(cyclopropylcarboxamido)-N-methoxy-4-((3-(1-methyl-1H-pyrazol-3-yl)-2-(2,2,2-trifluoroethoxy)phenyl)amino)nicotinamide] | > 10 | > 10 | 
CCONC(=O)c1cnc(Nc2cc(C)ccn2)cc1Nc1ccc(C2CC2)cc1N(C)S(C)(=O)=O [Example 147, 4-((4-cyclopropyl-2-(N-methylmethanesulfonamido)phenyl)amino)-N-ethoxy-6-((4-methylpyridin-2-yl)amino)nicotinamide] | > 10 | > 10 | 
CONC(=O)c1cnc(NC(=O)C2CC2)cc1Nc1cccc(C(N)=O)c1OC [Example 57, 4-((3-carbamoyl-2-methoxyphenyl)amino)-6-(cyclopropylcarboxamido)-N-methoxy nicotinamide] | > 10 | > 10 | 
CCONC(=O)c1cnc(Nc2nccs2)cc1Nc1ccc(C2CC2)cc1N(C)S(C)(=O)=O [Example 158, 4-((4-cyclopropyl-2-(N-methylmethanesulfonamido)phenyl)amino)-N-ethoxy-6-(thiazol-2-ylamino)nicotinamide] | > 10 | > 10 | 
CONC(=O)c1cnc(Nc2ccc(S(C)(=O)=O)cc2)cc1Nc1cccc(-c2cnn(C)c2)c1OC [Example 72, N-methoxy-4-((2-methoxy-3-(1-methyl-1H-pyrazol-4-yl)phenyl)amino)-6-((4-(methanesulfonyl)phenyl)amino)nicotinamide] | > 10 | > 10 | 
CONC(=O)c1cnc(Nc2cccc(F)n2)cc1Nc1ccccc1S(=O)(=O)N(C)C [Example 37, 4-((2-(N,N-dimethylaminosulfonyl)phenyl)amino)-6-((6-fluoropyridin-2-yl)amino)-N-methoxy nicotinamide] | > 10 | > 10 | 
CONC(=O)c1cnc(Nc2ccc(F)cn2)cc1Nc1cnccc1N(C)S(C)(=O)=O [Example 58, 6-((5-fluoropyridin-2-yl)amino)-N-methoxy-4-((4-(N-methylmethanesulfonamido)pyridin-3-yl)amino)nicotinamide] | > 10 | > 10 | 
CONC(=O)c1cnc(Nc2cccnc2OC)cc1Nc1ccccc1N(C)S(C)(=O)=O [Example 5] | > 10 | > 10 | 
CON(C)C(=O)c1cnc(Nc2cccc(F)n2)cc1Nc1ccccc1N(C)S(C)(=O)=O [Example 65, 6-((6-fluoropyridin-2-yl)amino)-N-methoxy-N-methyl-4-((2-(N-methylmethanesulfonamido)phenyl)amino)nicotinamide] | > 10 |  | > 10
CONC(=O)c1cnc(Nc2ccc(F)cc2)cc1Nc1ccc(C)nc1N(C)S(C)(=O)=O [Example 64, 6-((4-fluorophenyl)amino)-N-methoxy-4-((6-methyl-2-(N-methylmethanesulfonamido)pyridin-3-yl)amino)nicotinamide] | > 10 | > 10 | 
CCONC(=O)c1cnc(Nc2nc(C)cc(C)n2)cc1Nc1ccc(C2CC2)cc1N(C)S(C)(=O)=O [Example 123, 4-((4-cyclopropyl-2-(N-methylmethanesulfonamido)phenyl)amino)-6-((4,6-dimethylpyrimidin-2-yl)amino)-N-ethoxy nicotinamide] | > 10 | > 10 | 
CONC(=O)c1c(Nc2ccc(C3CC3)cc2N(C)S(C)(=O)=O)cc(Nc2cccc(F)n2)nc1C [Example 67, 4-((4-cyclopropyl-2-(N-methylmethanesulfonamido)phenyl)amino)-6-((6-fluoropyridin-2-yl)amino)-N-methoxy-2-methyl nicotinamide] | > 10 | > 10 | 
CONC(=O)c1cnc(NC(=O)C2CC2)cc1Nc1cccc(-c2cnn(C)c2)c1C#N [Example 48, 4-((2-cyano-3-(1-methyl-1H-pyrazol-4-yl)phenyl)amino)-6-(cyclopropylcarboxamido)-N-methoxy nicotinamide] | > 10 | > 10 | 
